Legend:
Assay type in all cases: organism-based
Phaseolus vulgaris [1] = assay: Phytotoxicity against Phaseolus vulgaris (Pinto dry bean) assessed as reduction in plant height applied pre-emergence relative to control; set-up: scale not given: the % may be the effect or the level left; settings: in vivo
Phaseolus vulgaris [2] = assay: Phytotoxicity against Phaseolus vulgaris (Yellow eye dry bean) assessed as reduction in plant height applied pre-emergence relative to control; set-up: scale not given: the % may be the effect or the level left; settings: in vivo
Phaseolus vulgaris [3] = assay: Phytotoxicity against Phaseolus vulgaris (Yellow eye dry bean) assessed as reduction in shoot dry weight applied pre-emergence relative to control; set-up: scale not given: the % may be the effect or the level left; settings: in vivo
Phaseolus vulgaris [4] = assay: Phytotoxicity against Phaseolus vulgaris (Pinto dry bean) assessed as reduction in shoot dry weight applied pre-emergence relative to control; set-up: scale not given: the % may be the effect or the level left; settings: in vivo
Phaseolus vulgaris [5] = assay: Phytotoxicity against Phaseolus vulgaris (Cranberry dry bean) assessed as visual crop injury applied pre-emergence relative to control; settings: in vivo
Phaseolus vulgaris [6] = assay: Phytotoxicity against Phaseolus vulgaris (Black dry bean) assessed as reduction in plant height applied pre-emergence relative to control; set-up: scale not given: the % may be the effect or the level left; settings: in vivo
Phaseolus vulgaris [7] = assay: Phytotoxicity against Phaseolus vulgaris (Otebo dry bean) assessed as reduction in shoot dry weight applied pre-emergence relative to control; set-up: scale not given: the % may be the effect or the level left; settings: in vivo
Phaseolus vulgaris [8] = assay: Phytotoxicity against Phaseolus vulgaris (Otebo dry bean) assessed as reduction in plant height applied pre-emergence relative to control; set-up: scale not given: the % may be the effect or the level left; settings: in vivo
Phaseolus vulgaris [9] = assay: Phytotoxicity against Phaseolus vulgaris (Black dry bean) assessed as reduction in shoot dry weight applied pre-emergence relative to control; set-up: scale not given: the % may be the effect or the level left; settings: in vivo
Phaseolus vulgaris [10] = assay: Phytotoxicity against Phaseolus vulgaris (White dry bean) assessed as reduction in shoot dry weight applied pre-emergence relative to control; set-up: scale not given: the % may be the effect or the level left; settings: in vivo
Phaseolus vulgaris [11] = assay: Phytotoxicity against Phaseolus vulgaris (White dry bean) assessed as reduction in plant height applied pre-emergence relative to control; set-up: scale not given: the % may be the effect or the level left; settings: in vivo
Phaseolus vulgaris [12] = assay: Phytotoxicity against Phaseolus vulgaris (White dry bean) assessed as visual crop injury applied pre-emergence relative to control; settings: in vivo
Phaseolus vulgaris [13] = assay: Phytotoxicity against Phaseolus vulgaris (White dry bean) assessed as visual crop injury relative to control; settings: in vivo
Phaseolus vulgaris [14] = assay: Phytotoxicity against Phaseolus vulgaris (Kidney) dry bean assessed as visual crop injury relative to control; settings: in vivo
Phaseolus vulgaris [15] = assay: Phytotoxicity against Phaseolus vulgaris (Pink dry bean) assessed as visual crop injury applied post-emergence relative to control; settings: in vivo
Phaseolus vulgaris [16] = assay: Phytotoxicity against Phaseolus vulgaris (Kidney dry bean) assessed as visual crop injury applied […] relative to control; settings: in vivo
Phaseolus vulgaris [17] = assay: Phytotoxicity against Phaseolus vulgaris (White dry bean) assessed as visual crop injury applied post-emergence relative to control; settings: in vivo, other

SMILES | Activity (Phaseolus vulgaris [5]) | Activity (Phaseolus vulgaris [6]) | Activity (Phaseolus vulgaris [9]) | Activity (Phaseolus vulgaris [11]) | Activity (Phaseolus vulgaris [12]) | Activity (Phaseolus vulgaris [16]) | other results
CON(C)C(=O)Nc1ccc(Cl)c(Cl)c1 [LINURON] | 4% | 24% | 26% | 24% | 49% |  | Activity (Phaseolus vulgaris [1]): 24%; Activity (Phaseolus vulgaris [2]): 24%; Activity (Phaseolus vulgaris [3]): 26%; Activity (Phaseolus vulgaris [4]): 26%; Activity (Phaseolus vulgaris [7]): 26%; Activity (Phaseolus vulgaris [8]): 24%; Activity (Phaseolus vulgaris [10]): 26%
CCc1cccc(CC)c1N(COC)C(=O)CCl [ALACHLOR] |  |  |  |  |  |  | Activity (Phaseolus vulgaris [13]): 5.6%; Activity (Phaseolus vulgaris [14]): 0.5%
CS(=O)(=O)NC(=O)c1cc(Oc2ccc(C(F)(F)F)cc2Cl)ccc1[N+](=O)[O-] [FOMESAFEN] |  |  |  |  |  | 1.4% | Activity (Phaseolus vulgaris [15]): 5%
C#CCN1C(=O)COc2cc(F)c(N3C(=O)C4=C(CCCC4)C3=O)cc21 [FLUMIOXAZIN] | 4% | 23% |  | 28% | 17% |  | 
CCc1cnc(C2=NC(C)(C(C)C)C(=O)N2)c(C(=O)O)c1 (stereo not given) [IMAZETHAPYR] |  | 40% |  | 40% |  | 1.8% | Activity (Phaseolus vulgaris [17]): 11%
CCc1cccc(C)c1N(C(=O)CCl)[C@@H](C)COC [S-METOLACHLOR] |  |  | 16% |  |  |  | 

From ChEMBL document CHEMBL3045522, “Responses of dry beans (Phaseolus vulgaris L.) to sulfentrazone” (Crop Prot, 2007)
